# Columns and labels:
# [1] = system: T cell surface proteins in buffy coat; experiment: Proteomic analysis of buffy coat samples from cancer patients administered Coenzyme Q10; type: in vivo, human; details: patients with solid tumors, intravenous 4% Coenzyme Q10 nanosuspension; start vs end of treatment
# Method: The ability of Coenzyme Q10 to modulate immune function in cancer patients was investigated by characterizing the molecular signature in buffy coats of patients administered Coenzyme Q10 for the treatment of solid tumors. A sterile Coenzyme Q10 (Ubidecarenone, USP) nanosuspension was administered intravenously to patients with solid tumors. Coenzyme Q10 was evaluated both as a monotherapy and in combination with standard chemotherapeutic agents (e.g. gemcitabine, 5-fluorouracil and docetaxel). The Coenzyme Q10 was provided as a 4% coenzyme Q10 nanosuspension formulation as described in WO 2011/112900, the entire contents of which are expressly incorporated herein by reference.
# The effect of Coenzyme Q10 treatments on protein expression in immune cells within the buffy coat was evaluated. Furthermore, it was determined whether the proteins identified were known to be on the surface of T cells. To complete this analysis, buffy coat samples were subjected to shot gun global proteomic analysis, and a comprehensive list of proteins were generated for samples obtained from 25 patients being treated for solid tumors with Coenzyme Q10 as described above.
# For proteomic analysis, data from two publically available T cell proteomic studies were combined. See Graessel A. et al., 2015, Molecular and Cellular Proteomics 14: 2085-2102; and Loyet K. M. et al., 2005, Proteome Research 4: 400, the entire contents of each of which are expressly incorporated herein by reference. Both studies defined the set of proteins on the surface of naïve and activated T cells to generate a working list of proteins potentially found on the T cell surface. This list (>600 proteins) was compared to the total proteome of the buffy coat (>2000 proteins) from twenty-five patients treated with Coenzyme Q10 as monotherapy.
# A total of 62 common proteins shared between T cell surface proteome and the buffy coat proteome were identified. The relative change in protein levels (on the y-axis) represents the slope of the line derived from the linear regression of the level of each protein at the start of Coenzyme Q10 treatment versus the level at the end of Coenzyme Q10 treatment. FIG. 1 provides a schematic of the plot slope of linear regression representing the change in protein expression over time.
# [2] = system: PD-L1 protein on the surface of breast cancer cells (MDA-MB231); experiment: Flow cytometry of PD-L1 protein on the cancer cell surface; type: cell-based, human
# Method: Flow cytometry analysis with a fluorescent probe for PD-L1 was used to determine the expression of PD-L1 protein on the surface of various human cancer cell lines. The cells were treated with 100 μM Coenzyme Q10, or the IC50 of Coenzyme Q10 for each cell line. […] The increased PD-L1 levels observed in breast cancer cells in response to Coenzyme Q10 treatment were not due to changes in cell populations.
# [3] = system: mouse syngeneic tumor cell lines (LL2, Hepa1-6, B16F10, CT26, EMT6/P, Renca); experiment: Cell viability (CellTiter-Fluor), all six mouse syngeneic tumor cell lines; type: cell-based; details: 0-25 mM, 72 hours, dose dependent
# Method: The sensitivity of mouse syngeneic tumor cell lines to Coenzyme Q10 was evaluated in vitro. Six mouse syngeneic tumor cell lines from different tissue types were exposed to increasing concentrations of Coenzyme Q10 (0-25 mM) at 37° C. for 72 hours. Cell viability was measured using CellTiter-Fluor kit (Promega, Madison, Wis.). Graphs and IC50 values were calculated using GraphPad Prism using data for at least three independent experiments. Mouse syngeneic tumor cell lines evaluated were Lewis lung carcinoma (LL2), hepatoma (Hepa1-6) skin melanoma (B16F10), colon cancer (CT26), mammary gland adenocarcinoma (EMT6/P), and renal adenocarcinoma (Renca). As shown in FIGS. 24A-24F, Coenzyme Q10 reduced viability of all of the tumor cell lines in a dose dependent manner.
# [4] = system: breast (MDA-MB231), prostate (LnCAP), ovarian (SKOV-3), colon (HT29), lung (A549), liver (Huh-7), and pancreatic (MIA PaCa-2) cancer cells; experiment: mRNA expression of PD1, PD-L1 and PD-L2 in cancer cells treated with Coenzyme Q10 (other treatment groups); type: cell-based, human; details: 50 μM, 100 μM or IC50 of Coenzyme Q10; all groups other than PD-L1 in HT29 at 50 μM
# Method: Levels of mRNA expression of the immune checkpoints PD1, PD-L1 and PD-L2 were determined in human breast (MDA-MB231), prostate (LnCAP), ovarian (SKOV-3), colon (HT29), lung (A549), liver (Huh-7), and pancreatic (MIA PaCa-2) cancer cells treated with 50 μM Coenzyme Q10, 100 μM Coenzyme Q10, or the IC50 of Coenzyme Q10 for each cell line.
# CTLA-4 = experiment: Inhibitory receptor surface expression on T cells within PBMCs; type: cell-based, human; details: PHA-stimulated T cells, 24 hours, dose dependent
# Method: (§1) Expression of the inhibitory receptor proteins PD-1 and CTLA-4 on the surface of T cells within PBMCs was also determined. The cells were treated with Coenzyme Q10 for 24 hours. Expression of immune checkpoint receptors was measured by staining cells with phenotypic markers for CD3/CD8, or CD3/CD4 in combination with antibodies against PD-1 or CTLA-4. Live cells were identified as 7 AAD negative lymphocytes followed by T cell phenotype characterization of total CD3+ T cells, cytotoxic T cells, or helper T cells. PD-1 or CTLA-4 cell surface expression was measured as mean fluorescence intensity on live T cells. Cells from three donors were tested. As shown in FIGS. 20A and 20B, Coenzyme Q10 decreased PD-1 and CTLA-4 expression on the surface of PHA-stimulated T cells in a dose dependent manner.
# PD-1 = experiment: as above; type: cell-based, human; details: PHA-stimulated T cells, 24 hours, dose dependent
# Method: as §1
# [5] = system: CD3 positive murine T cells within Balb/c PBMCs; experiment: Viability of murine CD3 positive T cells within PBMCs; type: cell-based, mouse; details: 0-800 μM, 24 hours, dose-dependent, non-stimulated and PHA-stimulated cells
# Method: The effects of Coenzyme Q10 on murine immune cells were also evaluated to determine whether Coenzyme Q10 has similar effects as those described above for human immune cells. For example, the viability of murine CD3 positive T cells within PHA-stimulated or unstimulated Balb/c PBMCs was determined. Cells were concurrently treated with Coenzyme Q10 (0, 12.5, 50, 200, 400 or 800 μM) for 24 hours and analyzed by flow cytometry using surface marker antibody for αCD3 and viability stains Annexin V/7AAD. CD3 positive and CD3 negative cell populations were identified within total cell population excluding debris, and viability was determined by plotting Annexin V-FITC vs. 7AAD. Two experiments using two different pools of Balb/c PBMCs and one experiment using C57B1/6 PBMCs were conducted. As shown in FIGS. 21A and 21B, Coenzyme Q10 increased the viability of CD3 positive murine T cells in a dose-dependent manner for both non-stimulated and PHA-stimulated cells.
structure (smiles),measurement,setting,value
COC1=C(OC)C(=O)C(C/C=C(\C)CC/C=C(\C)CC/C=C(\C)CC/C=C(\C)CC/C=C(\C)CC/C=C(\C)CC/C=C(\C)CC/C=C(\C)CC/C=C(\C)CCC=C(C)C)=C(C)C1=O [Coenzyme Q10],Expression of CD8B in buffy coat,[1],downregulated
same,Expression of CD247 in buffy coat,[1],downregulated
same,Expression of CFL1 in buffy coat,[1],upregulated
same,Expression of S100A8 in buffy coat,[1],upregulated
same,Amount of PD-L1 protein on the cell surface,"[2]; MDA-MB231, 3 hours after treatment",significantly increased
same,"Amount of PD-L1 protein on the cell surface, treated vs untreated","[2]; MDA-MB231, 6 hours after treatment",no significant difference
same,Amount of PD-L1 protein on the cell surface,"[2]; MDA-MB231, 72 hours after treatment",significantly increase
same,Percentage of cells having PD-L1 protein on their surface,"[2]; MDA-MB231, 72 hours after treatment, 100 μM or IC50 of Coenzyme Q10",did not significantly change
same,"Cell populations, treated vs untreated cells","[2]; MDA-MB231, flow cytometry",no changes
same,Viability of all of the tumor cell lines,[3],reduced
same,"PD1, PD-L1 and PD-L2 mRNA expression, other treatment groups",[4],no significant differences
same,CTLA-4 expression on the surface of T cells (mean fluorescence intensity),CTLA-4,decreased
same,PD-1 expression on the surface of T cells (mean fluorescence intensity),PD-1,decreased
same,Viability of CD3 positive murine T cells,[5],increased

# Reference: US20180021270A1, “METHODS FOR THE TREATMENT OF CANCER USING COENZYME Q10 IN COMBINATION WITH IMMUNE CHECKPOINT MODULATORS” (Berg LLC, priority 2016, published 2018)
